Experimental data reported in patent US12077503B2, “Substituted cyclic amides and their use as herbicides” (FMC CORPORATION, priority 2015, dated 2024).

Experiments:
Format in all cases: in vivo
[1] = tested on: barnyardgrass (Echinochloa crus-galli); assay: Test A preemergence; settings: Echinochloa crus-galli, pre-emergence, 240 h, 0 to 100 scale (0 no effect, 100 complete control), read-out: Plant response rating, Barnyardgrass; for pest or weed control at 500 g/ha: 500 g ai/ha, preemergence; for pest or weed control at 125 g/ha: Preemergence, 125 g ai/ha
How it was run: (§1)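 Seeds sprayed preemergence with a directed soil spray, or plants at 2 to 10 cm height and one- to two-leaf stage sprayed postemergence, with test chemicals in a non-phytotoxic solvent mixture containing surfactant, in loam soil–sand blend. Injury rated visually against untreated controls after about 10 d in greenhouse, 0 (no effect) to 100 (complete control).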

[2] = tested on: giant foxtail (Setaria faberii); assay: Test A preemergence; settings: Setaria faberi, pre-emergence, 240 h, 0 to 100 scale (0 no effect, 100 complete control), read-out: Plant response rating, Foxtail, Giant; for pest or weed control at 500 g/ha: 500 g ai/ha, preemergence; for pest or weed control at 125 g/ha: Preemergence, 125 g ai/ha
How it was run: as §1

[3] = tested on: pigweed (Amaranthus retroflexus); assay: Test A preemergence; settings: Amaranthus retroflexus, pre-emergence, 240 h, 0 to 100 scale (0 no effect, 100 complete control), read-out: Plant response rating, Pigweed; for pest or weed control at 500 g/ha: 500 g ai/ha, preemergence; for pest or weed control at 125 g/ha: Preemergence, 125 g ai/ha
[4] = tested on: barnyardgrass (Echinochloa crus-galli); assay: Test A postemergence; settings: Echinochloa crus-galli, post-emergence, 240 h, Postemergence; for pest or weed control at 125 g/ha: 125 g ai/ha, visual rating about 10 d after treatment, read-out: Barnyardgrass plant response rating (0 to 100 scale, 0 no effect, 100 complete control); for pest or weed control at 500 g/ha: 500 g ai/ha, visual injury, 0 to 100 scale (0 no effect, 100 complete control), approx. 10 d, read-out: Plant response rating, Barnyardgrass
How it was run: as §1

[5] = tested on: corn (Zea mays); assay: Test A postemergence; settings: Zea mays, post-emergence, 240 h, Postemergence; for plant injury at 125 g/ha: 125 g ai/ha, visual rating about 10 d after treatment, read-out: Corn plant response rating (0 to 100 scale); for Corn plant response rating (crop injury, 0 = no effect, 100 = complete kill) at 500 g/ha: 500 g ai/ha, visual injury, 0 to 100 scale (0 no effect, 100 complete control), approx. 10 d
How it was run: as §1

[6] = tested on: giant foxtail (Setaria faberii); assay: Test A postemergence; settings: Setaria faberi, post-emergence, 240 h, Postemergence; for pest or weed control at 125 g/ha: 125 g ai/ha, visual rating about 10 d after treatment, read-out: Foxtail, Giant plant response rating (0 to 100 scale); for pest or weed control at 500 g/ha: 500 g ai/ha, visual injury, 0 to 100 scale (0 no effect, 100 complete control), approx. 10 d, read-out: Plant response rating, Foxtail, Giant
How it was run: as §1

[7] = tested on: pigweed (Amaranthus retroflexus); assay: Test A postemergence; settings: Amaranthus retroflexus, post-emergence, 240 h, Postemergence; for pest or weed control at 125 g/ha: 125 g ai/ha, visual rating about 10 d after treatment, read-out: Pigweed plant response rating (0 to 100 scale); for pest or weed control at 500 g/ha: 500 g ai/ha, visual injury, 0 to 100 scale (0 no effect, 100 complete control), approx. 10 d, read-out: Plant response rating, Pigweed
How it was run: as §1

[8] = tested on: wheat (Triticum aestivum); assay: Test A postemergence; settings: Triticum aestivum, post-emergence, 240 h, Postemergence; for plant injury at 125 g/ha: 125 g ai/ha, visual rating about 10 d after treatment, read-out: Wheat plant response rating (0 to 100 scale); for plant injury at 500 g/ha: 500 g ai/ha, visual injury, 0 to 100 scale (0 no effect, 100 complete control), approx. 10 d, read-out: Plant response rating, Wheat
How it was run: as §1

[9] = tested on: Kochia (Kochia scoparia); assay: Test A preemergence; settings: Bassia scoparia, pre-emergence, 240 h, 0 to 100 scale (0 no effect, 100 complete control), read-out: Plant response rating, Kochia
How it was run: as §1

[10] = tested on: ragweed (common ragweed, Ambrosia elatior); assay: Test A preemergence; settings: Ambrosia artemisiifolia, pre-emergence, 240 h, 0 to 100 scale (0 no effect, 100 complete control), read-out: Plant response rating, Ragweed
How it was run: as §1

[11] = tested on: ryegrass, Italian (Italian ryegrass, Lolium multiflorum); assay: Test A preemergence; settings: Lolium multiflorum, pre-emergence, 240 h, 0 to 100 scale (0 no effect, 100 complete control), read-out: Plant response rating, Ryegrass, Italian
How it was run: as §1

[12] = tested on: Galium (catchweed bedstraw, Galium aparine); assay: Test A postemergence; settings: Galium, post-emergence, 240 h, Postemergence
How it was run: as §1

[13] = tested on: blackgrass (Alopecurus myosuroides); assay: Test A postemergence; settings: Alopecurus myosuroides, post-emergence, 240 h, Postemergence
How it was run: as §1

[14] = tested on: ragweed (common ragweed, Ambrosia elatior); assay: Test A postemergence; settings: Ambrosia artemisiifolia, post-emergence, 240 h, Postemergence
How it was run: as §1

Structure (SMILES) | pest or weed control at 500 g/ha [1] | pest or weed control at 125 g/ha [1] | pest or weed control at 500 g/ha [2] | pest or weed control at 125 g/ha [2] | pest or weed control at 500 g/ha [3] | pest or weed control at 125 g/ha [3] | pest or weed control at 125 g/ha [4] | pest or weed control at 500 g/ha [4] | plant injury at 125 g/ha [5] | Corn plant response rating (crop injury, 0 = no effect, 100 = complete kill) at 500 g/ha [5] | pest or weed control at 125 g/ha [6] | pest or weed control at 500 g/ha [6] | pest or weed control at 125 g/ha [7] | pest or weed control at 500 g/ha [7] | plant injury at 125 g/ha [8] | plant injury at 500 g/ha [8] | other results
N#Cc1ccc(NC(=O)C2C(=O)NCC2c2ccccc2)cc1 (centres unmarked) [Compound 1355] | 0% | 0% | 0% | 0% | 0% | 0% | 0% | 0% | 0% | 0% | 0% | 0% | 0% | 0% | 0% | 0% | 
O=C1NCC(c2ccccc2)C1C(=O)Nc1cccnc1 (centres unmarked) [Compound 1356] | 0% | 0% | 0% | 0% | 0% | 0% | 0% | 0% | 0% | 0% | 0% | 0% | 0% | 0% | 0% | 0% | 
O=C1NCC(c2ccccc2)C1C(=O)Nc1ccccc1 (centres unmarked) [Compound 1358] | 0% | 0% | 0% | 0% | 0% | 0% | 0% | 0% | 0% | 0% | 0% | 0% | 0% | 0% | 0% | 0% | 
O=C1NCC(c2ccccc2)C1C(=O)Nc1ccccc1Oc1ccccc1 (centres unmarked) [Compound 1357] | 0% | 0% | 0% | 0% | 0% | 0% | 0% | 0% | 0% | 0% | 0% | 0% | 0% | 0% | 0% | 0% | 
CN1C[C@H](c2ccc(C(F)(F)F)cc2)[C@@H](C(=O)Nc2cccc(F)c2C#N)C1=O [Compound 1380] | 100% | 90% | 100% | 100% | 90% | 80% | 60% | 80% | 50% | 80% | 90% | 90% | 50% | 60% | 40% | 40% | pest or weed control at 500 g/ha ([9]; 500 g ai/ha, preemergence): 90%; pest or weed control at 125 g/ha ([9]; Preemergence, 125 g ai/ha): 80%; pest or weed control at 500 g/ha ([10]; 500 g ai/ha, preemergence): 80%; pest or weed control at 125 g/ha ([10]; Preemergence, 125 g ai/ha): 70%; pest or weed control at 500 g/ha ([11]; 500 g ai/ha, preemergence): 50%; pest or weed control at 125 g/ha ([11]; Preemergence, 125 g ai/ha): 50%; pest or weed control at 125 g/ha ([12]; 125 g ai/ha, visual rating about 10 d after treatment, read-out: Galium plant response rating (0 to 100 scale)): 50%; pest or weed control at 500 g/ha ([12]; 500 g ai/ha, visual injury, 0 to 100 scale (0 no effect, 100 complete control), approx. 10 d, read-out: Plant response rating, Galium): 50%; pest or weed control at 125 g/ha ([13]; 125 g ai/ha, visual rating about 10 d after treatment, read-out: Blackgrass plant response rating (0 to 100 scale)): 40%; pest or weed control at 500 g/ha ([13]; 500 g ai/ha, visual injury, 0 to 100 scale (0 no effect, 100 complete control), approx. 10 d, read-out: Plant response rating, Blackgrass): 60%; pest or weed control at 125 g/ha ([14]; 125 g ai/ha, visual rating about 10 d after treatment, read-out: Ragweed plant response rating (0 to 100 scale)): 40%; pest or weed control at 500 g/ha ([14]; 500 g ai/ha, visual injury, 0 to 100 scale (0 no effect, 100 complete control), approx. 10 d, read-out: Plant response rating, Ragweed): 50%
